US10927110B2, “Cyano-subtituted heterocycles with activity as inhibitors of USP30” (MISSION THERAPEUTICS LIMITED, priority 2016, dated 2021)

Biological target: USP30 (Homo sapiens (Human), UniProt Q70CQ3)
Test: USP30 Biochemical IC50 Assay
Conditions: fluorescence polarisation, TAMRA labelled peptide linked to ubiquitin; 30 min pre-incubation, read after 2 h at room temperature; read-out: IC50 range
Experimental: USP30 Biochemical IC50 Assay
Dilution plates were prepared at 21 times the final concentration (2100 μM for a final concentration of 100 μM) in 50% DMSO in a 96-well polypropylene V-bottom plate (Greiner #651201). A typical 8-point dilution series would be 100, 30, 10, 3, 1, 0.3, 0.1, […]. Reactions were performed in duplicate in black 384 well plates (small volume, Greiner 784076) in a final reaction volume of 21 μl. Either 1 μl of 50% DMSO or diluted compound was added to the plate. USP30 was diluted in reaction buffer (40 mM Tris, pH 7.5, 0.005% Tween 20, 0.5 mg/ml BSA, 5 mM beta-mercaptoethanol) to the equivalent of 0.05 μl/well and 10 μl of diluted USP30 was added to the compound. Enzyme and compound were incubated for 30 min at room temp. Reactions were initiated by the addition of 50 nM of TAMRA labelled peptide linked to ubiquitin via an iso-peptide bond as fluorescence polarisation substrate. Reactions were read immediately after addition of substrate and following a 2 h incubation at room temperature. Readings were performed on a Pherastar Plus (BMG Labtech). λ Excitation 540 nm; λ Emission 590 nm.

Chain of USP30 (Q70CQ3 57-517): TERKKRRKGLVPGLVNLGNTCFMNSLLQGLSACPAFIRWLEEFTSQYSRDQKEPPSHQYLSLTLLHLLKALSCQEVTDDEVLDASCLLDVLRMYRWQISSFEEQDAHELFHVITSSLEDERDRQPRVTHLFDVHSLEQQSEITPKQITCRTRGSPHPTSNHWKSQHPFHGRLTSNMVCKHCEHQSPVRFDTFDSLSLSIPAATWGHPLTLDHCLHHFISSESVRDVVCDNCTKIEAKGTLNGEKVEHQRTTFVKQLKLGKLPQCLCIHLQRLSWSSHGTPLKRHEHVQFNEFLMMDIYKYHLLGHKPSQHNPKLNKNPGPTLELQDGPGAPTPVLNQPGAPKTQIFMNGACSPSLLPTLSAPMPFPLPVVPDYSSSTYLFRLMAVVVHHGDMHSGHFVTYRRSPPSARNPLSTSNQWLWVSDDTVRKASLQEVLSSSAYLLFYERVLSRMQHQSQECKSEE

IC50 [nM] | SMILES
100 to 1000 | N#Cc1cccc(-c2cnc3oc([C@@]4(F)CCCN(C#N)C4)nc3c2)c1 (stereo in doubt) [Example 28, 3-(6-(3-cyanophenyl)oxazolo[5,4-b]pyridin-2-yl)-3-fluoropiperidine-1-carbonitrile]
10 to 100 | N#Cc1cccc(-c2ccc3oc([C@@]4(F)CCCN(C#N)C4)nc3c2)c1 [Example 22, (R)-3-(5-(3-cyanophenyl)benzo[d]oxazol-2-yl)-3-fluoropiperidine-1-carbonitrile]
100 to 1000 | N#Cc1cc(-c2ccc3oc([C@@]4(F)CCCN(C#N)C4)nc3c2)ncn1 [Example 23, (R)-6-(2-(1-cyano-3-fluoropiperidin-3-yl)benzo[d]oxazol-5-yl)pyrimidine-4-carbonitrile]
100 to 1000 | N#Cc1ccnc(-c2ccc3oc([C@@]4(F)CCCN(C#N)C4)nc3c2)n1 [Example 24, (R)-2-(2-(1-cyano-3-fluoropiperidin-3-yl)benzo[d]oxazol-5-yl)pyrimidine-4-carbonitrile]
10 to 100 | N#Cc1cc(-c2ccc3oc([C@@]4(F)CCCN(C#N)C4)nc3c2)ccn1 [Example 25, (R)-4-(2-(1-cyano-3-fluoropiperidin-3-yl)benzo[d]oxazol-5-yl)picolinonitrile]
100 to 1000 | N#Cc1ccnc(-c2ccc3oc([C@@]4(F)CCCN(C#N)C4)nc3c2)c1 [Example 26, (R)-2-(2-(1-cyano-3-fluoropiperidin-3-yl)benzo[d]oxazol-5-yl)isonicotinonitrile]
100 to 1000 | N#Cc1cc(-c2ccc3nc([C@@]4(F)CCCN(C#N)C4)oc3c2)ccn1 [Example 27, (R)-4-(2-(1-cyano-3-fluoropiperidin-3-yl)benzo[d]oxazol-6-yl)picolinonitrile]
100 to 1000 | N#Cc1cccc(-c2cnc3nc(C4(F)CCCN(C#N)C4)oc3c2)c1 (centres unmarked) [Example 29, 3-(6-(3-cyanophenyl)oxazolo[4,5-b]pyridin-2-yl)-3-fluoropiperidine-1-carbonitrile]
100 to 1000 | N#Cc1cc(-c2cnc3oc([C@@]4(F)CCCN(C#N)C4)nc3c2)ccn1 [Example 30, (R)-4-(2-(1-cyano-3-fluoropiperidin-3-yl)oxazolo[5,4-b]pyridin-6-yl)picolinonitrile]
100 to 1000 | N#Cc1cc(-c2ccn3cc([C@@]4(F)CCCN(C#N)C4)nc3c2)ccn1 [Example 31, (R)-4-(2-(1-cyano-3-fluoropiperidin-3-yl)imidazo[1,2-a]pyridin-7-yl)picolinonitrile]

Second part, the molecule before the results:

SMILES | IC50 [nM]
N#CN1CCCC(F)(c2nc3ccc(-c4ccn[nH]4)nc3[nH]2)C1 (racemic) [Example 17, 3-(5-(1H-pyrazol-5-yl)-3H-imidazo[4,5-b]pyridin-2-yl)-3-fluoropiperidine-1-carbonitrile] | 1000 to 10000
N#Cc1cccc(-c2ccc3nc(C4(F)CCCN(C#N)C4)[nH]c3n2)c1 (stereo in doubt) [Example 16, (S)-3-(5-(3-cyanophenyl)-3H-imidazo[4,5-b]pyridin-2-yl)-3-fluoropiperidine-1-carbonitrile] | 10 to 100
N#CN1CCOC(c2nc(-c3cccc(-c4ccccc4)c3)n[nH]2)C1 (centres unmarked) [Example 6, 2-(3-([1,1′-Biphenyl]-3-yl)-H-1,2,4-triazol-5-yl)morpholine-4-carbonitrile] | 1000 to 10000
N#CN1CCC[C@](F)(c2nnc(-c3cccc(-c4ccccc4)c3)o2)C1 [Example 9, (R)-3-(5-([1,1′-biphenyl]-3-yl)-1,3,4-oxadiazol-2-yl)-3-fluoropiperidine-1-carbonitrile] | 10 to 100
N#CN1CCCC(F)(c2nnc(-c3ccc(-c4ccccc4)cc3)o2)C1 (centres unmarked) [Example 10, 3-(5-([1,1′-biphenyl]-4-yl)-1,3,4-oxadiazol-2-yl)-3-fluoropiperidine-1-carbonitrile] | 100 to 1000
N#Cc1cc(-c2cc(-c3nnc([C@@]4(F)CCCN(C#N)C4)o3)ccn2)ccn1 [Example 11, (R)-4-(5-(1-cyano-3-fluoropiperidin-3-yl)-1,3,4-oxadiazol-2-yl)-[2,4′-bipyridine]-2′-carbonitrile] | 100 to 1000
N#Cc1cc(-c2nnc([C@@]3(F)CCCN(C#N)C3)o2)ccn1 [Example 12, (R)-4-(5-(1-cyano-3-fluoropiperidin-3-yl)-1,3,4-oxadiazol-2-yl)picolinonitrile] | 1000 to 10000
N#Cc1cc(-c2ccnc(-c3nnc([C@@]4(F)CCCN(C#N)C4)o3)c2)ccn1 [Example 13, (R)-2′-(5-(1-cyano-3-fluoropiperidin-3-yl)-1,3,4-oxadiazol-2-yl)-[4,4′-bipyridine]-2-carbonitrile] | 1000 to 10000
N#CN1CCCC(F)(c2nc3ccc(-c4ccn[nH]4)cc3[nH]2)C1 (centres unmarked) [Example 14, 3-(6-(H-pyrazol-5-yl)-1H-benzo[d]imidazol-2-yl)-3-fluoropiperidine-1-carbonitrile] | 1000 to 10000
N#CN1CCC[C@](F)(c2nc3ccc(-c4ccccc4)nc3[nH]2)C1 [Example 15, (R)-3-fluoro-3-(5-phenyl-3H-imidazo[4,5-b]pyridin-2-yl)piperidine-1-carbonitrile] | 100 to 1000
N#Cc1cc(-c2cnc3nc([C@@]4(F)CCCN(C#N)C4)[nH]c3c2)ccn1 [Example 18, (R)-4-(2-(1-cyano-3-fluoropiperidin-3-yl)-3H-imidazo[4,5-b]pyridin-6-yl)picolinonitrile] | 100 to 1000
N#Cc1cc(-c2ccc3nc([C@@]4(F)CCCN(C#N)C4)[nH]c3n2)ccn1 [Example 19, (R)-4-(2-(1-cyano-3-fluoropiperidin-3-yl)-1H-imidazo[4,5-b]pyridin-5-yl)picolinonitrile] | 100 to 1000
N#Cc1cccc(-c2ccc3nc([C@@]4(F)CCCN(C#N)C4)[nH]c3n2)n1 [Example 21, (R)-6-(2-(1-cyano-3-fluoropiperidin-3-yl)-3H-imidazo[4,5-b]pyridin-5-yl)picolinonitrile] | 1000 to 10000
